According to patent publication US20260263517A1, “THERAPEUTIC METHODS WITH TARGET-LINKED SMALL MOLECULES AND ANTI-TARGET CAR T CELLS” (Seattle Children's Hospital (dba Seattle Children's …, priority 2022, published 2026):

Tests used:
MDA-MB-231 tumors = test: EC17 dose finding and CRS assessment in MDA-MB-231 tumor-bearing mice; format: in vivo; conditions: for human IFNγ in mouse plasma, fold over CAR-T cells only: all EC17 treated tumor cohorts
Description: All animal care and use were performed according to NIH guidelines and in compliance with protocols approved by the Purdue University Animal Use and Care Committee. Female 4 to 5-week-old NOD/SCID gamma (NSG™) mice (stock number:005557) were purchased from The Jackson Faboratory (Bar Harbor, ME). Unless specifically indicated, all animals were maintained on a FA-deficient diet (TestDiet, St. Fouis, MO) upon arrival and throughout the study. To establish subcutaneous xenografts, MDA-MB-231 and HOS-FRα were implanted in the right flank region at 2.5×10^6 and 1×10^6 cells per animal, respectively. For intravenous xenografts, THP1-FRβ) cells were inoculated at 5×10^6 cells per animal. Subcutaneous tumors were measured 2-3 times per week with a caliper and calculated using the ellipsoidal formula (length×width2)/2. […] All animal doses (CAR-T cells, EC17, sodium fluorescein) were given intravenously.
In a therapeutic setting, EC17 CAM can be given before or after CAR-T cell injection. As described herein, the first dose of EC17 was administered 2-3.5 days after CAR-T cells to allow for an observation period of human T cells in tumor-bearing mice. Two batches of unsorted E2-CAR-T cells (23% or 39% EGFRt+, 1:1 CD4/CD8) were used for in vivo studies. On the day of infusion for each experiment (day 0), frozen CAR-T cells were quickly thawed at 37° C., washed 2× with Dulbecco's IX PBS (pH 7.4) and injected into the tail vein at desired EGFRt+E2-CAR-T cell doses. In addition, a small aliquot of CAR-T cells was analyzed by flow cytometry for CD4 to CD 8 ratio and differentiation status of CAR-T cells. On the first day of EC17 dose, tumor-bearing animals were randomly assigned into groups according to their tumor sizes or the same number of days post intravenous implantation (i.e., THP1-FRβ).
For MDA-MB-231 studies, mice received a high dose (~10 million) of a “clinical facsimile” of E2-CAR-T cells (~39% EGFRt+) with a low differentiation profile (FIG. 9). Two days later, 3 different treatment regimens of EC17 were started at an average tumor size of −293±39 mm^3 (FIG. 12). The EC17 dosing was given once-a-week (SIW) at 500 nmol/kg on Mondays, or as escalating doses of 5, 50 or 100, and 500 or 1000 nmol/kg (i.e., 5/50/500 or 5/100/1000) on Monday, Thursday, and Monday with a 6-day break in-between cycles. Control mice were left untreated (received CAR-T cells but no EC17). For comparison, a cohort of tumor-free littermates also received the same number of CAR-T cells without or with EC17 SIW at 500 nmol/kg.
The initial EC17 dose finding studies were conducted in MDA-MB-231 tumor bearing mice as shown by the schematic diagram of the experimental layout (FIG. 12, panel A). NSG mice without or with MDA-MB-231 tumors (~211±65 mm3) were engrafted on day 0 with −10 million of a “clinical facsimile” batch of E2-CAR-T cells (−39% EGFRt+, 51:49 CD4/CD8). This batch of CAR-T cells consisted of mostly TSCM and TCM phenotypes (see FIG. 9). Two days after the CAR-T cell injection, one cohort of tumor-bearing mice were left untreated while three cohorts were treated with different regimens of EC17, including single injection per week (SIW) at 500 nmol/kg, or as escalating EC17 dose levels of 5/50/500 (Escalation-1) or 5/100/1000 nmol/kg (Escalation-2) given on a Monday/Thursday/Monday schedule with 1-week drug-free intervals. For comparison, two tumor-free cohorts were either untreated or treated with EC17 SIW at 500 nmol/kg.

[1] = cited from earlier work
[2] = ~10 million CAR-T cells, continued EC17 dosing independent of the regimen

NC1=NC2N=CC(CNc3ccc(C(=O)N[C@@H](CCC(=O)NCCNC(=S)Nc4ccc(-c5c6ccc(=O)cc-6oc6cc(O)ccc56)c(C(=O)O)c4)C(=O)O)cc3)=NC2C(=O)N1 (stereo partly shown) [EC17, FA-(γ)-ethylenediamine-FITC]
cures (MDA-MB-231 tumors; EC17-treated cohorts): 100% | body weight loss (MDA-MB-231 tumors; EC17 Escalation-2 regimen 5/100/1000 nmol/kg): persistent body weight loss | onset of CRS and body weight loss (MDA-MB-231 tumors; EC17 SIW at 500 nmol/kg): earliest onset of CRS and body weight loss | human IFNγ in mouse plasma, fold over CAR-T cells only (MDA-MB-231 tumors; day 11 (~20 hours after previous EC17 dose)): ~ 30 × | human IFNγ in mouse plasma, fold over CAR-T cells only (MDA-MB-231 tumors; day 12 (~42 hours after previous EC17 dose)): ~ 10 × | EC17 dose triggering severe CRS (grade≥3) (MDA-MB-231 tumors; in combination with a high CAR-T cell dose): ≥ 500 nmol/kg | persistence of CAR-T cells in mouse blood (MDA-MB-231 tumors; tumor-bearing animals, last measurement): up to 54 days | CRS symptoms (grades) (MDA-MB-231 tumors; [2]): 2-3 | body weight loss (MDA-MB-231 tumors; [2]): significant body weight losses | Maximum Tolerated Dose (MTD) ([1]; EC17 doses of 3.1×10^−2 and 2.76×10^−1 mg/kg in previously-conducted human studies): not reached | subjects with mild hypersensitivity reaction (most common adverse event) ([1]; intravenous, single agent, 84 subjects): 10.7% | overall tolerability ([1]; intravenous, single agent): well tolerated | serious adverse events ([1]; intravenous, single agent): No serious adverse events were reported
